The experiment has as its target Bovine serum albumin (BSA) (Bos taurus, UniProt P02769). The experiment is described as follows: Trp fluorescence quenching. It counts as binding. Particulars: 5 μM BSA, 0-15 μM dye, 10 mM HEPES pH 7.4, 298 K; double-log; n = 0.35.

Chain of Bovine serum albumin (BSA) (P02769 25-607): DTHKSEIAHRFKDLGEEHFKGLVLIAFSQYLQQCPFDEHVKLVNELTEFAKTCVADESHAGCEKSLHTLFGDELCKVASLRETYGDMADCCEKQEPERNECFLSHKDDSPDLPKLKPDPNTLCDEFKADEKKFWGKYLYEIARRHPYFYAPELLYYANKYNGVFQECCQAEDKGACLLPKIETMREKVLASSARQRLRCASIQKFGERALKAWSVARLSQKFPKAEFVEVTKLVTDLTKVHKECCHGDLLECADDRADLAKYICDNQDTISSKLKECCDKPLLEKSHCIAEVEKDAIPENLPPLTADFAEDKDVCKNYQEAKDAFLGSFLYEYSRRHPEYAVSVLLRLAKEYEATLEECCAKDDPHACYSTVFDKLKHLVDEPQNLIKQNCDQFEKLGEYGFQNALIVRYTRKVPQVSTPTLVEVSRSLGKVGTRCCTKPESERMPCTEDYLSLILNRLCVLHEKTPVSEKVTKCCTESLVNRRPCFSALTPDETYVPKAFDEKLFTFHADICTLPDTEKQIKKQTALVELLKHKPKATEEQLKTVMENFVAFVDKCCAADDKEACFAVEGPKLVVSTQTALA

On to `c1ccc2c(c1)Nc1ccccc1S2` [PTZ], for which the “Binding constant, K′” value was 6190 M⁻¹.

(Values after article PMC8693680 (RSC Advances, 2021).)
